Each structure is given as a SMILES string. A value given as a limit tells only on which side of the number the result lay.

Consider 25 molecules from patent US12071404B2, “Aza (indole)-, benzothiophene-, and benzofuran-3-sulfonamides” (UCB Pharma GmbH, priority 2016, dated 2024).

The target in assay [1] is T1, GPR17 (Homo sapiens, UniProt Q13304). Description: cAMP accumulation functional assay (HTRF, Schild analysis). In kind it is cell-based. On the set-up: host or cells: Flp-In T-REx CHO. As to conditions: CHO hGPR17 cells, Schild analysis vs MDL29,951, 5 μM forskolin, read-out: cAMP assay pA2 (converted). In a few lines: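 Antagonist affinity (pA2) came from Schild plots of dose ratios, based on MDL29,951 concentration-response curves fitted by 4-parameter logistic. The read-out was HTRF cAMP in 5,000 doxycycline-induced CHO hGPR17 cells per well, with 30 min compound preincubation and 60 min stimulation, at room temperature in pH 7.4 buffer.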

Assay [2] concerns the target T1, GPR17. Description: Calcium mobilization functional assay (GPR17 Ca2+ assay). As to conditions: CHO hGPR17 cells, inhibition of 50 nM MDL29,951, Calcium 5 dye, FLIPR; read-out: Ca2+ assay pIC50 (converted). On the set-up: host or cells: Flp-In T-REx CHO. In kind it is cell-based. An outline of the steps: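 pIC50 values were fitted with a 4-parameter logistic curve. They reflect test-compound inhibition of cytosolic Ca2+ release evoked by 50 nM MDL29,951, tracked as Calcium 5 fluorescence at room temperature. Cells were CHO Flp-In T-REx stably carrying human GPR17, induced with doxycycline 1 μg/mL for 16-20 h.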

T1 sequence (Q13304 whole entry): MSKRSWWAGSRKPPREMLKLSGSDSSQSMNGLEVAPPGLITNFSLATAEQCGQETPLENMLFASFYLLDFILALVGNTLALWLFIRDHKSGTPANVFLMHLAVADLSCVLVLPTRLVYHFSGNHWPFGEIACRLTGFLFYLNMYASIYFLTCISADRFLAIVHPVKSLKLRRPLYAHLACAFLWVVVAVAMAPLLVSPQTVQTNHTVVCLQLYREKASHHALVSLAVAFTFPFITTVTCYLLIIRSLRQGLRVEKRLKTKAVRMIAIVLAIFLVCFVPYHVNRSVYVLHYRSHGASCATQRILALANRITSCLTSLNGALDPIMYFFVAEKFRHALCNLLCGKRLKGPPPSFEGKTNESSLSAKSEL

For `COc1nc(NS(=O)(=O)c2c[nH]c3c2ccc2cccnc23)c(F)cc1Cl` [Compound I-328, N-(5-chloro-3-fluoro-6-methoxypyridin-2-yl)-1H-pyrrolo[3,2-h]quinoline-3-sulfonamide], the Kb in assay [1] is below 3.16 nM. In assay [2], the IC50 is below 3.16 nM.

As to `COc1ccc2c(S(=O)(=O)Nc3cc(F)c(Br)cc3F)c[nH]c2n1` [Compound I-272, N-(4-bromo-2,5-difluorophenyl)-6-methoxy-1H-pyrrolo[2,3-b]pyridine-3-sulfonamide], in assay [1], the Kb is below 3.16 nM. Also, the IC50 in assay [2] was 3.16 to 31.6 nM.

Take `O=S(=O)(Nc1cc(F)c(Cl)cc1F)c1c[nH]c2cc(Cl)ccc12` [Compound I-204, 6-chloro-N-(4-chloro-2,5-difluorophenyl)-1H-indole-3-sulfonamide]: the Kb in assay [1] is below 3.16 nM. Besides, the IC50 in assay [2] is 3.16 to 31.6 nM.

Regarding `O=S(=O)(Nc1ccc(S(F)(F)(F)(F)F)cc1F)c1c[nH]c2nc(Cl)ccc12` [Compound I-295, 6-chloro-N-[2-fluoro-4-(pentafluoro-lambda-6-sulfanyl)phenyl]-1H-pyrrolo[2,3-b]pyridine-3-sulfonamide], the Kb in assay [1] was 3.16 to 31.6 nM. Besides, in assay [2], the IC50 is 3.16 to 31.6 nM.

For `COc1cc(Cl)c(F)cc1NS(=O)(=O)c1c[nH]c2cc(Cl)ccc12` [Compound I-208, 6-chloro-N-(4-chloro-5-fluoro-2-methoxyphenyl)-1H-indole-3-sulfonamide], the Kb in assay [1] is 3.16 to 31.6 nM. In addition, in assay [2], the IC50 is above 31.6 nM.

Regarding `O=S(=O)(Nc1cc2nsnc2cc1F)c1c[nH]c2c1ccc1ccccc12` [Compound I-160, N-(6-fluoro-2,1,3-benzothiadiazol-5-yl)-1H-benzo[g]indole-3-sulfonamide], the Kb in assay [1] is 3.16 to 31.6 nM. Further, the IC50 in assay [2] is below 3.16 nM.

For `COc1ccc2c(S(=O)(=O)Nc3cc(F)c(Br)cc3F)c[nH]c2c1` [Compound I-285, N-(4-bromo-2,5-difluorophenyl)-6-methoxy-1H-indole-3-sulfonamide], in assay [1], the Kb is below 3.16 nM. In addition, the IC50 in assay [2] was below 3.16 nM.

For the molecule `O=S(=O)(Nc1ccc(I)cc1F)c1c[nH]c2cc(Cl)ccc12` [Compound I-140, 6-chloro-N-(2-fluoro-4-iodophenyl)-1H-indole-3-sulfonamide], the Kb in assay [1] was below 3.16 nM. Also, in assay [2], the IC50 is below 3.16 nM.

On to `O=S(=O)(Nc1cccc2c1OC(F)(F)O2)c1c[nH]c2nc(Cl)ccc12` [Compound I-100, 6-chloro-N-(2,2-difluoro-1,3-benzodioxol-4-yl)-1H-pyrrolo[2,3-b]pyridine-3-sulfonamide], for which the Kb in assay [1] was 3.16 to 31.6 nM. In addition, the IC50 in assay [2] was above 31.6 nM.

For `COc1cc(C#N)c(F)cc1NS(=O)(=O)c1c[nH]c2nc(Cl)ccc12` [Compound I-292, 6-chloro-N-(4-cyano-5-fluoro-2-methoxyphenyl)-1H-pyrrolo[2,3-b]pyridine-3-sulfonamide], the Kb in assay [1] is 3.16 to 31.6 nM. Moreover, the IC50 in assay [2] is 3.16 to 31.6 nM.

`O=S(=O)(Nc1cc2nsnc2cc1F)c1c[nH]c2cc(Br)ccc12` [Compound I-193, 6-bromo-N-(6-fluoro-2,1,3-benzothiadiazol-5-yl)-1H-indole-3-sulfonamide]: in assay [1], the Kb was below 3.16 nM. In assay [2], the IC50 was below 3.16 nM.

Consider `O=S(=O)(Nc1cccc2c1OC(F)(F)O2)c1c[nH]c2c1ccc1cccnc12` [Compound I-66, N-(2,2-difluoro-1,3-benzodioxol-4-yl)-1H-pyrrolo[3,2-h]quinoline-3-sulfonamide], for which the Kb in assay [1] was 3.16 to 31.6 nM. Also, in assay [2], the IC50 was 3.16 to 31.6 nM.

As to `O=S(=O)(Nc1cc(F)c(OC(F)F)cc1F)c1c[nH]c2nc(Cl)ccc12` [Compound I-266, 6-chloro-N-[4-(difluoromethoxy)-2,5-difluorophenyl]-1H-pyrrolo[2,3-b]pyridine-3-sulfonamide], the Kb in assay [1] was below 3.16 nM. The IC50 in assay [2] is below 3.16 nM.

In the case of `O=S(=O)(Nc1cc(F)c(Cl)cc1F)c1c[nH]c2cc3c(cc12)OCO3` [Compound I-271, N-(4-chloro-2,5-difluorophenyl)-5H-[1,3]dioxolo[4,5-f]indole-7-sulfonamide], the Kb in assay [1] is below 3.16 nM. In addition, the IC50 in assay [2] was below 3.16 nM.

On to `O=S(=O)(Nc1ccc2nonc2c1)c1c[nH]c2cc(Cl)ccc12` [Compound I-201, N-(2,1,3-benzoxadiazol-5-yl)-6-chloro-1H-indole-3-sulfonamide], for which the Kb in assay [1] is below 3.16 nM. Besides, the IC50 in assay [2] was above 31.6 nM.

For the molecule `O=S(=O)(Nc1ccc(OC(F)(F)F)cc1F)c1c[nH]c2nc(Cl)ccc12` [Compound I-273, 6-chloro-N-[2-fluoro-4-(trifluoromethoxy)phenyl]-1H-pyrrolo[2,3-b]pyridine-3-sulfonamide], in assay [1], the Kb was 3.16 to 31.6 nM. Besides, the IC50 in assay [2] is 3.16 to 31.6 nM.

For the molecule `COc1cc(C#N)c(F)cc1NS(=O)(=O)c1c[nH]c2cc(Cl)ccc12` [Compound I-286, 6-chloro-N-(4-cyano-5-fluoro-2-methoxyphenyl)-1H-indole-3-sulfonamide], the Kb in assay [1] was below 3.16 nM. For the same molecule, the IC50 in assay [2] is below 3.16 nM.

Turning to `Cc1cc(F)c(NS(=O)(=O)c2c[nH]c3nc(Cl)ccc23)cc1F` [Compound I-268, 6-chloro-N-(2,5-difluoro-4-methylphenyl)-1H-pyrrolo[2,3-b]pyridine-3-sulfonamide], in assay [1], the Kb was below 3.16 nM. For the same molecule, the IC50 in assay [2] is below 3.16 nM.

As to `O=S(=O)(Nc1nc(F)c(Cl)cc1F)c1c[nH]c2cc(Cl)ccc12` [Compound I-199, 6-chloro-N-(5-chloro-3,6-difluoropyridin-2-yl)-1H-indole-3-sulfonamide], the Kb in assay [1] was below 3.16 nM. Further, in assay [2], the IC50 was 3.16 to 31.6 nM.

`CS(=O)(=O)c1ccc2c(S(=O)(=O)Nc3cc4c(cc3F)OC(F)(F)O4)c[nH]c2c1` [Compound I-238, 6-(methylsulfonyl)-N-(2,2,6-trifluoro-1,3-benzodioxol-5-yl)-1H-indole-3-sulfonamide]: in assay [1], the Kb is 3.16 to 31.6 nM. In addition, the IC50 in assay [2] is 3.16 to 31.6 nM.

With `O=[N+]([O-])c1ccc(NS(=O)(=O)c2c[nH]c3cc(Cl)ccc23)cc1` [Compound I-39, 6-chloro-N-(4-nitrophenyl)-1H-indole-3-sulfonamide], the Kb in assay [1] was above 31.6 nM. Also, the IC50 in assay [2] was 3.16 to 31.6 nM.

Turning to `COc1cc(CC#N)c(F)nc1NS(=O)(=O)c1c[nH]c2cc(Cl)ccc12` [Compound I-350, 6-chloro-N-[5-(cyanomethyl)-6-fluoro-3-methoxypyridin-2-yl]-1H-indole-3-sulfonamide], in assay [1], the Kb was below 3.16 nM. Moreover, in assay [2], the IC50 is below 3.16 nM.

Consider `COc1ccc2c(S(=O)(=O)Nc3nc(OC)c(Cl)cc3F)c[nH]c2c1Cl` [Compound I-356, 7-chloro-N-(5-chloro-3-fluoro-6-methoxypyridin-2-yl)-6-methoxy-1H-indole-3-sulfonamide], for which the Kb in assay [1] is 3.16 to 31.6 nM. Besides, in assay [2], the IC50 was 3.16 to 31.6 nM.

For the molecule `O=S(=O)(Nc1nc(F)c(OCCF)cc1F)c1c[nH]c2cc(Cl)ccc12` [Compound I-364, 6-chloro-N-[3,6-difluoro-5-(2-fluoroethoxy)pyridin-2-yl]-1H-indole-3-sulfonamide], the Kb in assay [1] is below 3.16 nM. Moreover, in assay [2], the IC50 is below 3.16 nM.

`O=S(=O)(Nc1cccc2nonc12)c1c[nH]c2c1ccc1cccnc12` [Compound I-119, N-(2,1,3-benzoxadiazol-4-yl)-1H-pyrrolo[3,2-h]quinoline-3-sulfonamide]: in assay [1], the Kb is 3.16 to 31.6 nM. In assay [2], the IC50 was 3.16 to 31.6 nM.
